Data taken from US20100105722A1, “Substituted 4,5,6,7-tetrahydrothienopyridines as KCNQ2/3 Modulators” (GRUENENTHAL GmbH, priority 2008, published 2010).
Where two headings read alike, the source gives them in different places.

Target: T1, hKCNQ2/3 (Homo sapiens, UniProt O43525+O43526)
T1 construct: expressed in transfected cells; host or cells: CHO-K1
Experiment: Fluorescence assay using a voltage sensitive dye (fluorimetry)
Type: cell-based
Conditions: for Emax at 10 µM / Fluorimetry % Efficacy @ 10 μM (reti-gabine = 100%): relative to retigabine = 100%
Procedure: Fluorescence Assay using a Voltage Sensitive Dye
Human CHO-K1 cells expressing KCNQ2/3 channels are cultivated adherently at 37° C., 5% CO2 and 95% humidity in cell culture bottles (e.g. 80 cm^2 TC flasks, Nunc) with DMEM-high glucose (Sigma Aldrich, D7777) including 10% FCS (PAN Biotech, e.g. 3302-P270521) or alternatively MEM Alpha Medium (1×, liquid, Invitrogen, #22571), 10% fetal calf serum (FCS) (Invitrogen, #10270-106, heat-inactivated) and the necessary selection antibiotics.
Before being sown out for the measurements, the cells are washed with a 1×DPBS buffer without Ca^2+/Mg^2+ (e.g. Invitrogen, #14190-094) and detached from the bottom of the culture vessel by means of Accutase (PAA Laboratories, #L11-007) (incubation with Accutase for 15 min at 37° C.). The cell count then present is determined using a CASY™ cell counter (TCC model, Schärfe System) in order subsequently to apply, depending on the density optimization for the individual cell line, 20,000-30,000 cells/well/100 μl of the described nutrient medium to 96-well measuring plates of the Corning™ CellBIND™ type (Flat Clear Bottom Black Polystyrene Microplates, #3340). Incubation is then carried out for one hour at room temperature, without gassing or adjusting the humidity, followed by incubation for 24 hours at 37° C., 5% CO2 and 95% humidity.
The voltage-sensitive fluorescent dye from the Membrane Potential Assay Kit (Red™ Bulk format part R8123 for FLIPR, MDS Analytical Technologies™) is prepared by dissolving the contents of a vessel Membrane Potential Assay Kit Red Component A in 200 ml of extracellular buffer (ES buffer, 120 mM NaCl, 1 mM KCl, 10 mM HEPES, 2 mM CaCl2, 2 mM MgCl2, 10 mM glucose; pH 7.4). After removal of the nutrient medium, the cells are washed with 200 μl of ES buffer, then covered with a layer of 100 μl of the dye solution prepared above and incubated for 45 min at room temperature with the exclusion of light.
The fluorescence measurements are carried out with a BMG Labtech FLUOstar™, BMG Labtech NOVOstar™ or BMG Labtech POLARstar™ instrument (525 nm excitation, 560 nm emission, Bottom Read mode). After incubation of the dye, 50 μl of the test substances in the desired concentrations, or 50 μl of ES buffer for control purposes, are introduced into separate cavities of the measuring plate and incubated for 30 min at room temperature while being shielded from light. The fluorescence intensity of the dye is then measured for 5 min and the fluorescence value F1 of each well is thus determined at a given, constant time. 15 μl of a […] KCl solution ([…]) are then added to each well. The change in fluorescence is subsequently measured until all the relevant measured values have been obtained (mainly 5-30 min). At a given time after KCl application, a fluorescence value F2 is determined, in this case at the time of the fluorescence peak.
For calculation, the fluorescence intensity F2 is compared with the fluorescence intensity F1, and the agonistic activity of the target compound on the potassium channel is determined therefrom. F2 and F1 are calculated as follows: […]
In order to determine whether a substance has agonistic activity, […]
for example, can be compared with […]
is determined by adding to the reaction batch only the buffer solution instead of the test substance, determining the value F1K of the fluorescence intensity, adding the potassium ions as described above, and measuring a value F2K of the fluorescence intensity. F2K and F1K are then calculated as follows: […]
A substance has an agonistic activity on the potassium channel when […]
Independently of the comparison of […]
it is possible to conclude that a target compound has agonistic activity if an increase in […]
is to be observed as the dosage of the target compound increases.
Calculations of EC50 and IC50 values are carried out with the aid of ‘Prism v4.0’ software (GraphPad Software™).

[1] = CHO-K1, 10 μM, CHO-K1 cells expressing KCNQ2/3, Table 3, read-out: Fluorimetry % Efficacy @ 10 μM (reti-gabine = 100%)
[2] = CHO-K1 cells expressing KCNQ2/3, Table 3
[3] = 10 μM, CHO-K1 cells expressing KCNQ2/3, Table 3

Row | Emax at 10 µM [1] [%] | EC50 [2] [nM] | SMILES | further results
1 | – | 1010 | CC(C)c1ccccc1C1c2ccsc2CCN1C(=O)CCC(=O)NCc1cccc(C(F)(F)F)c1 (stereo not drawn) [compound 252] | –
2 | -15 | – | Cc1ccc(C2c3ccsc3CCN2C(=O)CCC(=O)NCc2ccccc2)cc1 (stereo not drawn) [compound 48] | –
3 | – | 596 | O=C(CCC(=O)N1CCc2sccc2C1CCCc1ccccc1)NCc1cccc(C(F)(F)F)c1 (stereo not drawn) [compound 265] | –
4 | – | 323 | Cc1ccccc1C1c2sccc2CCN1C(=O)CCC(=O)NCc1cccc(C(F)(F)F)c1 (stereo not drawn) [compound 274] | –
5 | – | 1440 | O=C(CCC(=O)N1CCc2sccc2C1c1ccccc1)NCC1CCCCC1 (stereo not drawn) [compound 247] | –
6 | 15 | – | Cc1cccc(C2c3ccsc3CCN2C(=O)CCC(=O)Nc2cccc3nsnc23)c1 (stereo not drawn) [compound 52] | –
7 | – | 306 | CCCCC1c2sccc2CCN1C(=O)CCC(=O)NCc1cccc(C(F)(F)F)c1 (stereo not drawn) [compound 258] | –
8 | 10 | – | Cc1ccc(C2c3ccsc3CCN2C(=O)CCC(=O)NCc2ccncc2)cc1 (stereo not drawn) [compound 50] | –
9 | – | 131 | CCc1ccccc1C1c2ccsc2CCN1C(=O)CCC(=O)NCc1cccc(C(F)(F)F)c1 (stereo not drawn) [compound 251] | –
10 | 37 | – | Cc1ccc(C2c3ccsc3CCN2C(=O)CCC(=O)Nc2ccc3cnn(C)c3c2)cc1 (stereo not drawn) [compound 47] | –
11 | 28 | – | Cc1cccc(C2c3ccsc3CCN2C(=O)CCC(=O)Nc2ccc3cnn(C)c3c2)c1 (stereo not drawn) [compound 53] | –
12 | 39 | 311 | Cc1scc2c1CCN(C(=O)CCC(=O)NCc1cccc(C(F)(F)F)c1)C2c1ccccc1 (stereo not drawn) [compound 45] | –
13 | – | 519 | O=C(CCC(=O)N1CCc2sccc2C1c1ccccc1)N1CCc2ccc(C(F)(F)F)cc2C1 (stereo not drawn) [compound 269] | –
14 | 35 | – | COc1ccc(NC(=O)CCC(=O)N2CCc3sccc3C2c2ccc(C)cc2)cc1 (stereo not drawn) [compound 46] | –
15 | – | 160 | O=C(CCC(=O)N1CCc2sccc2C1C1CCCC1)NCc1cccc(C(F)(F)F)c1 (stereo not drawn) [compound 263] | –
16 | – | 166 | Cc1cc(F)ccc1C1c2ccsc2CCN1C(=O)CCC(=O)NCc1cccc(C(F)(F)F)c1 (stereo not drawn) [compound 262] | –
17 | – | 90 | Cc1ccccc1C1c2ccsc2CCN1C(=O)CCC(=O)NCc1ccccc1C(F)(F)F (stereo not drawn) [compound 256] | –
18 | – | 211 | Cc1ccsc1C1c2ccsc2CCN1C(=O)CCC(=O)NCc1cccc(C(F)(F)F)c1 (stereo not drawn) [compound 254] | –
19 | – | 517 | O=C(CCC(=O)N1CCc2sccc2C1c1ccccc1)NCc1ccc(F)c(C(F)(F)F)c1 (stereo not drawn) [compound 250] | –
20 | – | 261 | O=C(CCC(=O)N1CCc2sccc2C1c1ccccc1)NCc1cc(F)cc(C(F)(F)F)c1 (stereo not drawn) [compound 41] | –
21 | – | 347 | Cc1ccc(CNC(=O)CCC(=O)N2CCc3sccc3C2c2ccccc2)cc1C(F)(F)F (stereo not drawn) [compound 249] | –
22 | – | 690 | O=C(CCC(=O)N1CCc2sccc2C1c1ccccc1)NCCC1CCCCC1 (stereo not drawn) [compound 245] | –
23 | – | 547 | Cc1ccccc1C1c2ccsc2CCN1C(=O)CCC(=O)NCc1ccc(C(F)(F)F)cc1 (stereo not drawn) [compound 257] | –
24 | 38 | – | Cc1ccc(C2c3ccsc3CCN2C(=O)CCC(=O)NCCCc2ccccc2)cc1 (stereo not drawn) [compound 51] | –

The next lines start with the compound.

Row | SMILES | Emax at 10 µM [1] [%] | EC50 [2] [nM] | further results
25 | C[C@H](CC(=O)NCc1cccc(C(F)(F)F)c1)C(=O)N1CCc2sccc2C1c1ccccc1 (stereo partly drawn) [compound 34] | 179 | 628 | –
26 | O=C(CCC(=O)N1CCc2sccc2C1C1CCCCC1)NCc1cccc(C(F)(F)F)c1 (stereo not drawn) [compound 21] | 148 | 324 | –
27 | O=C(CCC(=O)N1CCc2sccc2C1c1ccccc1)NCc1cccc(C(F)(F)F)c1 (stereo not drawn) [compound 36] | – | 707 | –
28 | O=C(CCC(=O)N1CCc2sccc2C1c1ccccc1F)NCc1cccc(C(F)(F)F)c1 (stereo not drawn) [compound 6] | 133 | 284 | –
29 | C[C@H](CC(=O)N1CCc2sccc2C1c1ccccc1)C(=O)NCc1cccc(C(F)(F)F)c1 (stereo partly drawn) [compound 28] | 106 | 540 | –
30 | O=C(CCC(=O)N1CCc2sccc2C1c1ccccc1)NCc1cccc(C(F)(F)F)c1F (stereo not drawn) [compound 40] | – | 156 | –
31 | COc1cccc(CNC(=O)CCC(=O)N2CCc3sccc3C2c2ccccc2)c1 (stereo not drawn) [compound 15] | -46 | – | –
32 | O=C(CC(C(=O)N1CCc2sccc2C1c1ccccc1)c1ccccc1)NCc1cccc(C(F)(F)F)c1 (stereo not drawn) [compound 29] | -45 | – | IC50 [2]: 133 nM
33 | O=C(CCC(=O)N1CCc2sccc2C1c1ccccc1)NCc1cccc(F)c1 (stereo not drawn) [compound 18] | 11 | 2180 | –
34 | O=C(NCc1cccc(C(F)(F)F)c1)C1CCCCC1C(=O)N1CCc2sccc2C1c1ccccc1 (mixture of isomers) [compound 31] | – | – | Fluorimetry % Efficacy @ 10 μM (reti-gabine = 100%) [3]: −44%; IC50 [2]: 250 nM
35 | O=C(CCC(=O)N1CCc2ccsc2C1c1ccccc1)NCc1cccc(C(F)(F)F)c1 (stereo not drawn) [compound 9] | 110 | 407 | –
36 | O=C(CCC(=O)N1CCc2sccc2C1c1ccc(F)cc1)NCc1cccc(C(F)(F)F)c1 (stereo not drawn) [compound 7] | 132 | 348 | –
37 | Cc1csc2c1C(c1ccccc1)N(C(=O)CCC(=O)NCc1cccc(C(F)(F)F)c1)CC2 (stereo not drawn) [compound 20] | 54 | 722 | –
38 | Cc1ccccc1CNC(=O)CCC(=O)N1CCc2sccc2C1c1ccccc1 (stereo not drawn) [compound 26] | -20 | – | –
39 | Cc1cc2c(s1)CCN(C(=O)CCC(=O)NCc1cccc(C(F)(F)F)c1)C2c1ccccc1 (stereo not drawn) [compound 10] | 121 | 382 | –
40 | O=C(CCC(=O)N1CCc2sccc2C1c1ccccc1)NCc1ccc(C(F)(F)F)cc1 (stereo not drawn) [compound 13] | 51 | 375 | –
41 | O=C(NCc1cccc(C(F)(F)F)c1)C(CC(=O)N1CCc2sccc2C1c1ccccc1)c1ccccc1 (stereo not drawn) [compound 27] | 119 | > 404 | –
42 | O=C(NCc1cccc(C(F)(F)F)c1)C1CCCCC1C(=O)N1CCc2sccc2C1c1ccccc1 (stereo not drawn) [compound 32] | – | 414 | Fluorimetry % Efficacy @ 10 μM (reti-gabine = 100%) [3]: 110%
43 | O=C(CCC(=O)N1CCc2sccc2C1c1ccccc1)NCCc1ccccc1 (stereo not drawn) [compound 25] | 12 | – | –
44 | CCCCC1c2ccsc2CCN1C(=O)CCC(=O)NCc1cccc(C(F)(F)F)c1 (stereo not drawn) [compound 23] | 146 | 947 | –
45 | COc1ccccc1CNC(=O)CCC(=O)N1CCc2sccc2C1c1ccccc1 (stereo not drawn) [compound 14] | -54 | – | –
46 | O=C(CCC(=O)N1CCn2cccc2C1c1cccs1)NCc1cccc(C(F)(F)F)c1 (stereo not drawn) [Example No. 76 of WO 2008/046582, reference compound] | – | – | Emax at 10 µM (10 μM, comparison experiments table, read-out: Fluorimetry % Efficacy @ 10 μM (retigabine = 100%)): 113%; EC50 (comparison experiments table): 3290 nM
47 | O=C(CC(C(=O)N1CCc2sccc2C1)c1ccccc1)NCc1cccc(C(F)(F)F)c1 (stereo not drawn) [compound 30] | -101 | – | IC50 [2]: 212 nM
48 | Cc1cccc(CNC(=O)CCC(=O)N2CCc3sccc3C2c2ccccc2)c1 (stereo not drawn) [compound 19] | -45 | – | –
49 | COc1ccc(CNC(=O)CCC(=O)N2CCc3sccc3C2c2ccccc2)cc1 (stereo not drawn) [compound 16] | 21 | – | –
50 | O=C(CCC(=O)N1CCc2sccc2C1c1ccccc1)NCc1cccc(C(F)(F)F)c1 (stereo not drawn) [compound 35] | – | 572 | –
51 | CC(C)C1c2ccsc2CCN1C(=O)CCC(=O)NCc1cccc(C(F)(F)F)c1 (stereo not drawn) [compound 22] | 139 | 1220 | –
52 | Cc1cccc(C2c3ccsc3CCN2C(=O)CCC(=O)NCc2cccc(C(F)(F)F)c2)c1 (stereo not drawn) [compound 4] | 102 | 456 | –
